Literature values, collected in patent publication US20220273802A1, “METHODS FOR IMPROVED DELIVERY OF AMINOTHIOLS, DIMERS OF AMINOTHIOLS, AND HETERODIMERS COMPOSED OF AMINOTHIOLS” (THE BURLINGTON HC RESEARCH GROUP, INC., priority 2012, published 2022).

Key:
V79 cells = details: for activity if present outside of V79 cells: compound present outside of cells
mouse L cells = details: for radioprotective effect upon mouse L cells in culture: compound alone, without dephosphorylation
[1] = tested on: three species of adenovirus
SIV = details: later studies

| Compound | activity if present outside of V79 cells (V79 cells) | radioprotective effect upon mouse L cells in culture (mouse L cells) | radioprotective activity (mouse L cells; incubated with mouse liver homogenate (active alkaline phosphatase)) | protection against gamma-radiation (V79 cells; correlated with intracellular levels) | antiviral efficacy against influenza virus A and B (influenza virus A and B) | antiviral efficacy against three species of adenovirus [1] | efficacy against SIV (SIV) | antiviral efficacy against HIV (HIV) |
| --- | --- | --- | --- | --- | --- | --- | --- | --- |
| NCCCNCCSP(=O)(O)O [Amifostine] | did not show evidence of activity | no radioprotective effect | radioprotective activity was observed | – | – | – | – | – |
| NCCCNCCSSCC(N)C(=O)O (stereo not drawn) [WR-1065-Cys] | did not show evidence of activity | – | – | – | – | – | – | – |
| NCCCNCCS [WR-1065] | did not show evidence of activity | Activity also was observed | – | significant protection | exhibits antiviral efficacy | exhibits antiviral efficacy | demonstrated efficacy | exhibits antiviral efficacy |
| NCCCNCCSSCCNCCCN [WR-33278] | did not show evidence of activity | – | – | – | – | – | – | – |
